# Paper PMC5424110, “Preclinical anti-arthritic study and pharmacokinetic properties of a potent histone deacetylase inhibitor MPT0G009” (Cell Death & Disease, 2014)
# “Also recorded” adds a separate entry of the source. Read-outs that look alike come from different tables or passages of the source.
# What was measured:
# [1] = system: rat AIA model; experiment: In vivo adjuvant-induced arthritis (AIA) model; details: day 21, ELISA, MPT0G009 25 mg/kg, SAHA 200 mg/kg, indomethacin 1 mg/kg
# Description: Next, we evaluated the in vivo anti-arthritic effects of MPT0G009 in a rat AIA model. […] The inhibition of synoviocytes proliferation and inflammation by MPT0G009 treatment was also observed (Supplementary Figure 1).
# Figure 5 MPT0G009 inhibits the development of arthritis in an AIA model. […] Subsequently, swelling of both hind paws was photographed. (b) Hind paw volumes in the indicated group of rats were measured using a digital plethysmometer on the indicated day after AIA induction. (c) Arthritis scores on day 21. (d) Serum levels of interleukin (IL)-1β (left panel) and IL-6 (right panel) on day 21 as measured by enzyme-linked immunosorbent assay (ELISA). (e) Top five rows: photomicrographs of ankle joint sections from the different groups stained with hematoxylin and eosin, safranin O, immunohistochemically stained with an anti-acetyl H3 antibody or TRAP stain. Arrows indicate osteoblasts (OB); arrowheads indicate osteoclasts (OC). Bottom panels: micro-CT results (arrows indicate bone erosion). (f) The BMD (in mg/mm^3) and the BMC (in mg) values for the bone tissue of the tarsus were analyzed using CT Analysis Software.
# Five-week-old male Lewis rats were obtained from the National Laboratory Animal Center (Taipei, Taiwan). Complete Freund's adjuvant (CFA) was prepared by suspending heat-killed Mycobacterium butyricum (Difco, Sparks, MD, USA) in mineral oil at 3 mg/ml. CFA-induced arthritis was induced by intradermal injection of 100 μl of the CFA emulsion into the base of the right hind paw on day 0. […] On days 0, 2, 6, 9, 13, 17 and 21, the animals were weighed and both hind paw volumes measured using a digital plethysmometer (Diagnostic & Research Instruments Co. Ltd, Taipei, Taiwan). On day 21, micro-CT of the paws was performed by the Core Facilities Center of the National Research Program for Biopharmaceuticals using an in vivo micro-CT scanner (Skyscan 1176, Bruker Corp., Kontich, Belgium) at 18 μm resolution and 180° scanning with a rotation step of 0.8° per image, 300 ms integration time, 70 keV photon energy and 350 μA current. The reconstructed volumes from micro-CT scans were analyzed by CT Analysis Software (CTAn, Bruker Corp.). Quantification of volumetric BMD and bone volume (BV) was performed in a defined bone area ranging 12 mm from tarsals to the end of the calcaneus. The BMC was described by the product of BV and BMD. On day 21, the rats were killed and specimens from the phalanges and ankle joints stained with hematoxylin–eosin or safranin O for histopathological assessment by the National Laboratory Animal Center. Intensity of arthritis was scored as described previously from 0 to 4.[19] All four legs were scored, so the highest possible arthritic score was 16.
# [2] = set-up: method as in PMID 17473456; details: rat, cited from earlier work
# [3] = system: RAW264.7 cells; experiment: Inflammatory mediator production by LPS-stimulated RAW264.7 cells; format: cell-based, mouse; details: RAW264.7, LPS 25 ng/ml 24 h; MPT0G009 0.1, 1 or 10 μM; SAHA 0.3, 3 or 30 μM
# Description: (§1) (a) Structure of MPT0G009.
# (§2) These supernatants were then assayed for prostaglandin E2 (PGE2), NO and IL-6.
# [4] = system: CD51/61 on RAW264.7 cells; experiment: Osteoclast-specific marker CD51/61 by flow cytometry; details: RAW264.7, M-CSF/RANKL; 5 nM MPT0G009 or 50 nM SAHA
# Description: Subsequently, multinucleate tartrate-resistant acid phosphatase (TRAP)-positive cells were counted.
# Cells were then TRAP stained, and the numbers of TRAP-positive multinuclear cells were counted. […] Images are at × 100 magnification, and the arrows indicate differentiated osteoclasts.
# Cells were then TRAP stained, and the numbers of TRAP-positive multinuclear cells were counted (d) or were incubated with a FITC-conjugated anti-CD51/61 antibody and analyzed by flow cytometry (e).
# After three washes with FACS washing buffer, the fluorescence of the cells was analyzed on a FACScan flow cytometer (BD Biosciences).
# [5] = system: RA-FLS; experiment: Cell cycle distribution by propidium iodide flow cytometry; format: cell-based, human; details: RA-FLS 24 h, MPT0G009 1–1000 nM, SAHA 3–3000 nM
# [6] = system: histone H3 acetylation and HDAC3 in RA-FLS; experiment: Western blot of acetyl histone H3 and HDAC isoforms, RA-FLS; format: cell-based, human
# Description: Then, cells were harvested and cell lysates were prepared for western blot analysis of the indicated proteins. (c) RA-FLSs were incubated for 1 h with or without the proteasome inhibitor, MG132 (1 μM). […] Results shown are representative of three independent experiments.
# [7] = system: histone H3 acetylation in HIG-82 synoviocytes; experiment: Western blot of acetyl histone H3, HIG-82 cells; format: cell-based, rabbit; details: 3 μM MPT0G009 or 60 μM SAHA, 6, 12 or 24 h, starting at 6 h
# [8] = system: RA-FLS; experiment: Cell proliferation assay (SRB), RA-FLS; format: cell-based, human; details: 24 or 48 h
# [9] = system: p21 in RA-FLS; experiment: p21 expression in RA-FLS by flow cytometry
# Description: After three washes with FACS washing buffer, the fluorescence of the cells was analyzed on a FACScan flow cytometer (BD Biosciences). […] They were then incubated for 30 min at room temperature with 0.2 ml of DNA extraction buffer (0.2 M Na2HPO4 and 0.1 M citric acid buffer, pH 7.8), resuspended in 1 ml of propidium iodide staining buffer (0.1% Triton X-100, 100 μg/ml of RNase A and 80 μg/ml of propidium iodide in PBS), incubated at 37 °C for 30 min in the dark, sorted by FACScan, and analyzed using CellQuest software (BD Biosciences).
# [10] = system: HIG-82 synoviocytes; experiment: Cell proliferation assay (SRB), HIG-82 synoviocytes; format: cell-based, rabbit; details: 24 or 48 h
# [11] = system: RA fibroblast-like synoviocyte (RA-FLS); experiment: Inflammatory mediator production by stimulated RA-FLS; format: cell-based, human; details: MPT0G009 0.1, 1 or 10 μM, SAHA 0.3, 3 or 30 μM
# Description: as §1, §2
# [12] = system: RAW264.7 macrophages; experiment: Osteoclast differentiation assay (TRAP stain), M-CSF/RANKL-induced; format: cell-based, mouse; details: RAW264.7, M-CSF/RANKL 50 ng/ml 5 days; 5 nM MPT0G009 or 50 nM SAHA
# Description: Osteoclast formation was measured by quantifying cells stained for the osteoclast marker TRAP using an acid phosphatase kit (387-A; Sigma-Aldrich). Briefly, the specimens were fixed for 30 s in fixative solution (25.5% citrate solution, 66.3% acetone, 8.2% of 37% formaldehyde), then incubated for 1 h at 37 °C with a mixture of the provided naphthol AS-BI phosphate and tartrate solutions, followed by counterstaining with hematoxylin solution. Osteoclasts were counted as TRAP-positive multinuclear (>3 nuclei) cells using light microscopy. The morphological features of osteoclasts were also photographed.
smiles,measurement,setting,value
"COc1ccc2c(c1)c(CC(=O)O)c(C)n2C(=O)c1ccc(Cl)cc1 [indomethacin, reference compound]",serum levels of IL-1β,[1],significant decreases
same,serum levels of IL-6,[1],significant decreases
"O=C(CCCCCCC(=O)Nc1ccccc1)NO [SAHA, suberoylanilide hydroxamic acid, reference compound]",AUC(0-inf),[2]; i.v. 2 mg/kg,278 ng·h/mL
same,CL,[2]; i.v. 2 mg/kg,134 mL/min/kg
same,T1/2,[2]; i.v. 2 mg/kg,38.4 min
same,Vd,[2]; i.v. 2 mg/kg,3.92 L/kg
same,AUC(0-inf),[2]; p.o. 5 mg/kg,49.40 ng·h/mL
same,Cmax,[2]; p.o. 5 mg/kg,83.90 ng/mL
same,F (oral bioavailability),[2]; p.o. 5 mg/kg,6.9%
same,T1/2,[2]; p.o. 5 mg/kg,67.8 min
same,Tmax,[2]; p.o. 5 mg/kg,10.2 min
same,NO production,[3],inhibited
same,PGE2 production,[3],inhibited
same,expression of the osteoclast-specific marker (CD51/61),[4],had no effect
same,subG1 peak (cellular apoptosis),[5],did not increase the subG1 peak
same,cell cycle arrest,[5]; all concentrations,G0/G1 phase arrest
same,acetylation of histone H3 (Acetyl-H3),"[6]; 1 μM MPT0G009 or 30 μM SAHA, 6, 12 or 24 h, starting at 12 h",had a similar effect
same,levels of HDAC3,"[6]; 12 or 24 h, 1 μM MPT0G009 or 30 μM SAHA",had no effect
same,acetylation of histone H3 (Acetyl-H3),[7],had a similar effect
same,anti-proliferative effect,[8],concentration-dependent anti-proliferative effects
same,expression of p21,"[9]; RA-FLS 24 h, 1 μM MPT0G009 or 3 μM SAHA, flow cytometry or western blot",significantly increased
same,p21 (flow cytometry),"[9]; RA-FLS, 3 μM, 24 h, Figure 1h",96.42%
same,serum levels of IL-1β,[1],significant decreases
same,serum levels of IL-6,[1],significant decreases
same,anti-proliferative effect,[10],concentration-dependent anti-proliferative effects
same,IL-6 production,[11]; IL-1β 10 ng/ml 24 h,inhibited
same,PGE2 production,[11]; LPS 25 ng/ml 24 h,inhibited
same,formation of M-CSF/RANKL-induced TRAP-positive cells,[12],had no effect; also recorded: had little effect
